Measured values from patent publication US8519149B2, “Tricyclic compounds as mPGES-1 inhibitors” (Glenmark Pharmaceuticals S.A., priority 2010, dated 2013).

Target: T1, Recombinant human mPGES-1 (Homo sapiens, UniProt O14684)
T1 sequence (O14684 1-152): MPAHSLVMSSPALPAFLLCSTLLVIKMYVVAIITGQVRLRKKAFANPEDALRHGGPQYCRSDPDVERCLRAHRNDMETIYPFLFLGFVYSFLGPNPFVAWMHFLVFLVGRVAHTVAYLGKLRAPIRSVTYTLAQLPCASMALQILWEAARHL
Test: In-vitro mPGES-1 enzyme inhibition assay (PGE2 formation from PGH2, HTRF detection)
Assay type: biochemical
Details: for inhibition at 1 µM: 1 μM test compound, read-out: Percentage inhibition at 1 μM; for inhibition at 1 µM / inhibition at 10 µM: recombinant human mPGES-1 microsomal fraction; for inhibition at 10 µM: 10 μM test compound, read-out: Percentage inhibition at 10 μM; for IC50: class symbols, selected examples
Method in brief: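 IC50 values were derived by nonlinear regression of percent inhibition relative to enzyme reactions run without inhibitor. PGE2 formed from PGH2 with GSH was quantified by antibody-based HTRF after stannous chloride quench. Enzyme source was human mPGES-1 microsomes at 40-60 μg/mL protein; DMSO 0.5% (v/v).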

SMILES	inhibition at 1 µM [%]	inhibition at 10 µM [%]	IC50 [nM]
CC1(C)Cc2c(c(-c3nc(-c4ccc(F)c(Cl)c4)no3)cc3nc(Nc4c(Cl)cccc4Cl)[nH]c23)O1 [Example-161, 5-(3-(3-Chloro-4-fluorophenyl)-1,2,4-oxadiazol-5-yl)-N-(2,6-dichlorophenyl)-7,7-dimethyl-7,8-dihydro-1H-benzofuro[4,5-d]imidazol-2-amine]	79.2	88	> 100
CC1(C)Cc2c(c(C(=O)Nc3cc(C4CC4)ccc3F)cc3nc(Nc4c(Cl)cncc4Cl)[nH]c23)O1 [Example-203, N-(5-Cyclopropyl-2-fluorophenyl)-2-((3,5-dichloropyridin-4-yl)amino)-7,7-dimethyl-7,8-dihydro-1H-benzofuro[4,5-d]imidazole-5-carboxamide]	100	94.8	< 50
CC1(C)Cc2c(c(C(=O)NC3CCC(F)(F)CC3)cc3nc(Nc4c(Cl)cccc4Cl)[nH]c23)O1 [Example-93, 2-[(2,6-Dichlorophenyl)amino]-N-(4,4-difluorocyclohexyl)-7,7-dimethyl-7,8-dihydro-1H-furo[3,2-e]benzimidazole-5-carboxamide]	83.1	80.9	
Cn1c(Nc2c(F)cccc2Cl)nc2cc(C(=O)Nc3ccc(C(F)(F)F)nc3)c3c(c21)CC(C)(C)O3 [Example-153, 2-((2-Chloro-6-fluorophenyl)amino)-1,7,7-trimethyl-N-(6-(trifluoromethyl)pyridin-3-yl)-7,8-dihydro-1H-benzofuro[4,5-d]imidazole-5-carboxamide]	100	99.9	< 50
Cc1cc2c(o1)c(C(=O)Nc1ccccc1F)cc1nc(Nc3c(Cl)cccc3Cl)[nH]c12 [Example-67, 2-[(2,6-Dichlorophenyl)amino]-N-(2-fluorophenyl)-7-methyl-1H-furo[3,2-e]benzimidazole-5-carboxamide]	92.8	96.2	
Cc1nc2c(o1)c(C(=O)Nc1ccc(C(F)(F)F)cc1)cc1nc(Nc3c(Cl)cccc3Cl)[nH]c12 [Example-178, 7-[(2,6-Dichlorophenyl)amino]-2-methyl-N-[4-(trifluoromethyl)phenyl]-8H-imidazo[4,5-e][1,3]benzoxazole-4-carboxamide]	91.4	98.2	< 50
CC1(C)Cc2c(c(C(=O)NCc3ccc(F)cc3C(F)(F)F)cc3nc(Nc4c(F)cccc4Cl)[nH]c23)O1 [Example-129, 2-((2-Chloro-6-fluorophenyl)amino)-N-(4-fluoro-2-(trifluoromethyl)benzyl)-7,7-dimethyl-7,8-dihydro-1H-benzofuro[4,5-d]imidazole-5-carboxamide]	88.3	97.1	< 50
Cc1nnc(NC(=O)c2cc3nc(Nc4c(Cl)cccc4Cl)[nH]c3c3c2OC(C)(C)C3)s1 [Example-38, 2-[(2,6-Dichlorophenyl)amino]-7,7-dimethyl-N-(5-methyl-1,3,4-thiadiazol-2-yl)-7,8-dihydro-1H-furo[3,2-e]benzimidazole-5-carboxamide]	74.5	81.5	
CC1(C)Cc2c(c(C(=O)Nc3ccc(Cl)cc3)cc3nc(Nc4c(Cl)cncc4Cl)[nH]c23)O1 [Example-15, N-(4-Chlorophenyl)-2-[(3,5-dichloropyridin-4-yl)amino]-7,7-dimethyl-7,8-dihydro-1H-furo[3,2-e]benzimidazole-5-carboxamide]	97.5	95.5	< 50
Cc1ccc(Cl)c(Nc2nc3cc(C(=O)Nc4cccc(C(F)(F)F)c4)c4c(c3[nH]2)CC(C)(C)O4)c1 [Example-123, 2-[(2-Chloro-5-methylphenyl)amino]-7,7-dimethyl-N-[3-(trifluoromethyl)phenyl]-7,8-dihydro-1H-furo[3,2-e]benzimidazole-5-carboxamide]	91.1	98.9	< 50
Cc1ccc(Nc2nc3cc(C(=O)NCc4ccc(C(F)(F)F)cc4)c4c(c3[nH]2)CC(C)(C)O4)c(Cl)c1 [Example-92, 2-[(2-Chloro-4-methylphenyl)amino]-7,7-dimethyl-N-[4-(trifluoromethyl)benzyl]-7,8-dihydro-1H-furo[3,2-e]benzimidazole-5-carboxamide]	75.4	76	
CC1(C)Cc2c(c(C(=O)Nc3ccccc3F)cc3nc(Nc4c(F)cccc4Cl)[nH]c23)O1 [Example-51, 2-[(2-Chloro-6-fluorophenyl)amino]-N-(2-fluorophenyl)-7,7-dimethyl-7,8-dihydro-1H-furo[3,2-e]benzimidazole-5-carboxamide]	96.9	99.4	< 50
Cc1csc(NC(=O)c2cc3nc(Nc4c(F)cccc4Cl)[nH]c3c3c2OC(C)(C)C3)n1 [Example-54, 2-[(2-Chloro-6-fluorophenyl)amino]-7,7-dimethyl-N-(4-methyl-1,3-thiazol-2-yl)-7,8-dihydro-1H-furo[3,2-e]benzimidazole-5-carboxamide]	79.2	92.8	
Cn1c(Nc2c(Cl)cncc2Cl)nc2cc(C(=O)Nc3ccc(C(F)(F)F)cc3)c3c(c21)CC(C)(C)O3 [Example-215, 2-((3,5-dichloropyridin-4-yl)amino)-1,7,7-trimethyl-N-(4-(trifluoromethyl)phenyl)-7,8-dihydro-1H-benzofuro[4,5-d]imidazole-5-carboxamide]	96.3	94.1	
Cn1c(Nc2c(Cl)cncc2Cl)nc2cc(C(=O)Nc3ccc(C4CC4)cc3)c3c(c21)CC(C)(C)O3 [Example-216, N-(4-Cyclopropylphenyl)-2-((3,5-dichloropyridin-4-yl)amino)-1,7,7-trimethyl-7,8-dihydro-1H-benzofuro[4,5-d]imidazole-5-carboxamide]	96.5	96.4	
CC1(C)Cc2c(c(C(=O)Nc3ccc(C(F)(F)F)cc3)cc3nc(Nc4ccccc4Cl)[nH]c23)O1 [Example-89, 2-[(2-Chlorophenyl)amino]-7,7-dimethyl-N-[4-(trifluoromethyl)phenyl]-7,8-dihydro-1H-furo[3,2-e]benzimidazole-5-carboxamide]	97.1	97.1	< 50
CC1(C)Cc2c(c(C(=O)Nc3ccc(F)cc3)cc3nc(Nc4c(Cl)cncc4Cl)[nH]c23)O1 [Example-24, 2-[(3,5-Dichloropyridin-4-yl)amino]-N-(4-fluorophenyl)-7,7-dimethyl-7,8-dihydro-1H-furo[3,2-e]benzimidazole-5-carboxamide]	95.3	95	< 50
CC1(C)Cc2c(c(C(=O)Nc3cccc(C(C)(F)F)c3)cc3nc(Nc4c(F)cccc4Cl)[nH]c23)O1 [Example-119, 2-[(2-Chloro-6-fluorophenyl)amino]-N-[3-(1,1-difluoroethyl)phenyl]-7,7-dimethyl-7,8-dihydro-1H-furo[3,2-e]benzimidazole-5-carboxamide]	98.1	100	< 50
Cc1ccc(NC(=O)c2cc3nc(Nc4c(Cl)cncc4Cl)[nH]c3c3c2OC(C)(C)C3)c(Cl)c1 [Example-198, N-(2-Chloro-4-methylphenyl)-2-((3,5-dichloropyridin-4-yl)amino)-7,7-dimethyl-7,8-dihydro-1H-benzofuro[4,5-d]imidazole-5-carboxamide]	98.7	99.7	< 50
CC1(C)Cc2c(c(C(=O)Nc3ccc(Cl)cc3)cc3nc(Nc4ccccc4Cl)[nH]c23)O1 [Example-18, N-(4-Chlorophenyl)-2-[(2-chlorophenyl)amino]-7,7-dimethyl-7,8-dihydro-1H-furo[3,2-e]benzimidazole-5-carboxamide]	98.4	99.8	< 50
Cc1cc2c(o1)c(C(=O)NC(C)C(C)(C)C)cc1nc(Nc3c(Cl)cncc3Cl)[nH]c12 (centres unmarked) [Example-23, 2-[(3,5-Dichloropyridin-4-yl)amino]-N-(3,3-dimethylbutan-2-yl)-7-methyl-1H-furo[3,2-e]benzimidazole-5-carboxamide]	94	97.1	< 50
CC1(C)Cc2c(c(C(=O)NCCN3CCOCC3)cc3nc(Nc4c(Cl)cccc4Cl)[nH]c23)O1 [Example-70, 2-[(2,6-Dichlorophenyl)amino]-7,7-dimethyl-N-[2-(morpholin-4-yl)ethyl]-7,8-dihydro-1H-furo[3,2-e]benzimidazole-5-carboxamide]	69.1	88.2	
CC1(C)Cc2c(c(C(=O)Nc3ccc(C(F)(F)F)cc3)cc3nc(Nc4ccccc4C(C)(C)C)[nH]c23)O1 [Example-102, 2-[(2-tert-Butylphenyl)amino]-7,7-dimethyl-N-[4-(trifluoromethyl)phenyl]-7,8-dihydro-1H-furo[3,2-e]benzimidazole-5-carboxamide]	19.3	22.8	
Cc1cccc(Cl)c1Nc1nc2cc(C(=O)Nc3ccc(C(F)(F)F)nc3)c3c(c2[nH]1)CC(C)(C)O3 [Example-160, 2-((2-Chloro-6-methylphenyl)amino)-7,7-dimethyl-N-(6-(trifluoromethyl)pyridin-3-yl)-7,8-dihydro-1H-benzofuro[4,5-d]imidazole-5-carboxamide]	99.2	100	50 to 100
Cc1cc2c(o1)c(C(=O)NCc1ccc(F)cc1)cc1nc(Nc3c(Cl)cncc3Cl)[nH]c12 [Example-22, 2-[(3,5-Dichloropyridin-4-yl)amino]-N-(4-fluorobenzyl)-7-methyl-1H-furo[3,2-e]benzimidazole-5-carboxamide]	85.8	98.8	
